Data reported in patent publication US7947275B2 (Signe Biopharma, Inc., priority 2000, dated 2011).
Values joined by “and” are separate entries in the source; they are usually repeats but may differ in a detail not shown here. Identical values can stand only once. Like-named read-outs stand apart in the source and are kept apart here.

Tests used:
HT-29 cells = assay: Cell growth assay, HT-29 human colon cancer cells; type: cell-based; conditions: CAPM with plasma IgM at 40 μg/mL, increasing concentrations of T3
Source text: General Cell Culture—Growth Assay Methods.
General Cell Culture—Harvest and Counting Cells.
General Cell Culture—Quantification of Growth.

[1] = system: GH4C1, GH1 and GH3 rat pituitary tumor cell lines; assay: Thyroid hormone growth effects with GH cell lines in CDE-horse serum; type: cell-based
Description: Thyroid Hormone Responsive Pituitary Tumor Cell Growth in CDE-Serum Prepared at 34° C. […] Nonetheless, the 34° C. […] It is known that the thyroid hormone receptor is a member of a superfamily of receptors that also includes the steroid hormone receptors (Evans R M (1988) Science (Wash D.C.) 240:889-895). Testing of substances expected to have thyroid hormone like activity can be performed with the GH cell lines in the presence of low concentrations of CDE-serum.

human CBG = human CBG (Homo sapiens, UniProt P08185); conditions: 23° C.; cited from earlier work
[2] = system: CA-PS-Pool II from rat serum; assay: Scatchard analysis of labeled steroid binding to the SHBG-like pools from rat serum; conditions: 3H-labeled steroid
[3] = system: cortisol receptors of MTW9/PL2 cells; assay: ^3H-cortisol binding to MTW9/PL2 cells; conditions: ≦20 nM ^3H-cortisol
GH4C1 cells = assay: Cell growth assay, GH4C1 rat pituitary tumor cells
T47D cells = assay: Cell growth assay, T47D human breast cancer cells; conditions: for effect of estrogen in serum-free defined medium without inhibitor: serum-free DDM-2MF ± 10 nM E2
[4] = target: T1, CA-PS-Pool I (predominantly CBG) (Equus caballus, UniProt F7DRS2); assay: Scatchard analysis of labeled steroid binding to CA-PS-pool I; set-up: species or system horse; conditions: 3H-labeled steroid, 34° C.; for Kd: read-out: CA-PS-Pool I Kd
T1 sequence (F7DRS2 23-406): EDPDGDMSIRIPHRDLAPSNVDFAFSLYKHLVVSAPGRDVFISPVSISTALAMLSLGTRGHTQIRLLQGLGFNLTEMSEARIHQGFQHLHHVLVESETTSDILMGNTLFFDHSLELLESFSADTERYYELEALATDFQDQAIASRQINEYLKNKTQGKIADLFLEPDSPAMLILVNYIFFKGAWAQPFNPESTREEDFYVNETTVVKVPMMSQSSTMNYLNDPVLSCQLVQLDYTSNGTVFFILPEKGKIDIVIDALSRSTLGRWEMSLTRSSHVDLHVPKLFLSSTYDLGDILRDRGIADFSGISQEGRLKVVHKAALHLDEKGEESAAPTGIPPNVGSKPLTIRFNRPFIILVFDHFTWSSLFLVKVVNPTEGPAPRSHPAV

MTW9/PL2 cells = assay: Cell growth assay, MTW9/PL2 rat mammary tumor cells; conditions: 50% (v/v) CDE-horse serum
CA-PS-Pool II = assay: Scatchard analysis of labeled steroid binding to CA-PS-pool II; set-up: species or system horse; conditions: 3H-labeled steroid, 34° C.
H301 cells = assay: Cell growth assay, H301 kidney tumor cells
[5] = system: MCF-7A, T47D and MTW9/PL2 cells; assay: Direct test of phenol red versus E2 as mitogen with three ER^+ cell lines; type: cell-based; conditions: phenol red free D-MEM/F-12 with 30% CDE-HS
Description: Direct Test of Phenol Red Estrogenic Activity. Three cell lines were selected for a direct test of phenol red as a mitogen. […] This concentration was chosen even though it is not as inhibitory as 50% (v/v) serum. This selection was made to reduce possible interactions of the phenol red/contaminant with serum proteins while still retaining a significant inhibitory effect. Phenol red concentrations of up to 16 mg/L were added to this medium. This highest level was twice that in standard commercially formulated Gibco-BRL D-MEM/F-12. […] The preparations used in this study ranged in age from newly obtained to more than ten year old laboratory stocks.

[6] = system: progesterone receptors of T47D cells; assay: Induction of progesterone receptors in T47D cells; type: cell-based, human; conditions: four days, phenol red free medium
human SHBG = human SHBG (Homo sapiens, UniProt P04278); conditions: 37° C.; cited from earlier work
MCF-7K cells = assay: Cell growth assay, MCF-7K human breast cancer cells; conditions: serum-free DDM-2MF ± 10 nM E2, 12 days
LNCaP cells = assay: Cell growth assay, LNCaP human prostatic carcinoma cells; type: cell-based; conditions: D-MEM/F-12 with CDE-horse serum, 10 nM steroid
Description: Specific modifications of the customary cell growth assays were required for assays done under iron-restricted conditions. […] Serum-free components were added to “low-Fe” D-MEM/F-12 at double the concentrations needed (2X) or to “standard” D-MEM/F-12 at (2X) as the experiments dictated. Each assay dish received 1.0 mL of this solution. Next, the cells to be used in the assays were washed three times in either “low-Fe” medium or “standard” medium depending upon the experimental protocol.

[7] = target: estrogen receptor of H301 cells (Mesocricetus auratus, UniProt Q9QZJ5); conditions: cited from earlier work
[8] = read-out: Kd of ^3H-E2 specific binding
ZR-75-1 cells = assay: Cell growth assay, ZR-75-1 human breast cancer cells; conditions: serum-free defined DDM-2MF
[9] = system: progesterone receptors of MTW9/PL2 cells; assay: Estrogen induction of progesterone receptors in MTW9/PL2 cells; type: cell-based, rat; conditions: 1.0×10^−8 M E2, within two days; two experiments
Source text: All results were normalized to “receptors per cell” to correct for growth over the duration of the experiment.

ERβ = conditions: Transfection Studies, ERβ only; cited from earlier work
[10] = read-out: Kd of ^3H-E2 specific binding; remark: listed apart in the source
[11] = target: T2, estrogen receptors of intact T47D cells (Homo sapiens, UniProt P03372); assay: Displacement of ^3H-E2 binding to intact T47D cells; conditions: 5 nM ^3H-E2, two hours at 37° C.; r9-r14: 2.5, 5.0, 50, 250, 500, 1000 nM Unlabeled E2; r15-r19: 1, 2, 4, 5, 16 mg/L Phenol Red
T2 construct: endogenous in cells; host or cells: T47D human breast cancer cells

estrogen receptor of H301 cells, sequence (Q9QZJ5 whole entry): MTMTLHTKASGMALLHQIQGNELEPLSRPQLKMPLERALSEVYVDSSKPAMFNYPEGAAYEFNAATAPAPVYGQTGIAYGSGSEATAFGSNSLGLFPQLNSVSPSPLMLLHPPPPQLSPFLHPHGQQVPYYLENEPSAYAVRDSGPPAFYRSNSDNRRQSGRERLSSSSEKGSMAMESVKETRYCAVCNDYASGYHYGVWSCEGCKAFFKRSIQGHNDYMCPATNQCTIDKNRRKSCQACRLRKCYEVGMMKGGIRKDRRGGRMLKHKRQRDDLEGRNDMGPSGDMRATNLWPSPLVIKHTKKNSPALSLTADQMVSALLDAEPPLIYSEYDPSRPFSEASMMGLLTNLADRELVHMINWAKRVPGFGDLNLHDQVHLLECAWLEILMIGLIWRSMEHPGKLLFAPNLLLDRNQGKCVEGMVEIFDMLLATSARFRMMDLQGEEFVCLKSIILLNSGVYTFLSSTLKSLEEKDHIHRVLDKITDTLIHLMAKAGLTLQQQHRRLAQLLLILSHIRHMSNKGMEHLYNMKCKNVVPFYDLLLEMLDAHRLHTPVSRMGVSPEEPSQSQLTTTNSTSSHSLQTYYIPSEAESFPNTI
human SHBG, sequence (P04278 30-402): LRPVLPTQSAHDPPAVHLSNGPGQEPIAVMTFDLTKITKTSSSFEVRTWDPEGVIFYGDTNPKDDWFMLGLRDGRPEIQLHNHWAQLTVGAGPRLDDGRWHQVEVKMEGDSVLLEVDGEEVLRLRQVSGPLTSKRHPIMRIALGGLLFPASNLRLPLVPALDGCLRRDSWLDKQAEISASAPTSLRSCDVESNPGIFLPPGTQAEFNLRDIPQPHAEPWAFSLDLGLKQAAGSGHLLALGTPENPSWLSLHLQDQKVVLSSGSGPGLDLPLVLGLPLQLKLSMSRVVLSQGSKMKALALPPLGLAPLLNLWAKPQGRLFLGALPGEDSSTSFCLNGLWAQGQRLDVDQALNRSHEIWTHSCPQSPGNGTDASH
human CBG, sequence (P08185 23-405): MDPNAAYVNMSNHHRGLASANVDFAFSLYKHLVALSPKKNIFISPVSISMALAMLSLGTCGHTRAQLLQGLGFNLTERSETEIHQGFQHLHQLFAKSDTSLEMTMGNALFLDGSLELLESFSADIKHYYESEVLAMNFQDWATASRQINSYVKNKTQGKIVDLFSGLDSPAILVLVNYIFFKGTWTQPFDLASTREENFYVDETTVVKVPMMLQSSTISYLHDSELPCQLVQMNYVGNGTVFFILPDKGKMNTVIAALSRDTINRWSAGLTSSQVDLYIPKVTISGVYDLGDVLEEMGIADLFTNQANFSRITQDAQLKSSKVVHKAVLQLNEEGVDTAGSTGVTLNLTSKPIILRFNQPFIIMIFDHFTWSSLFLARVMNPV

## N[C@@H](Cc1cc(I)c(Oc2ccc(O)c(I)c2)c(I)c1)C(=O)O [T3, 3′, 5-Triiodothyronine]
HT-29 cells
  thyroid hormone reversal of the IgM inhibition: restored growth
[1]; 50% (v/v) CDE-horse serum
  growth effect, result in words: only supraphysiologic concentrations of thyroid hormone showed growth effects
[1]; D-MEM/F-12 with […] (v/v) CDE-horse serum
  growth effect, result in words: caused substantial growth

## C[C@]12CCC(=O)C=C1CC[C@@H]1[C@@H]2[C@@H](O)C[C@@]2(C)[C@H]1CC[C@]2(O)C(=O)CO [cortisol, Hydrocortisone/Cortisol]
Human CBG
  Ka for human CBG: 5.2e+07 M⁻¹
[2]
  CA-PS-Pool II Ka: 180000 M⁻¹
  Kd: 5700 nM
[3]
  specific saturable receptors for cortisol: did not identify specific saturable receptors
GH4C1 cells; 50% CDE-horse serum
  growth effect of steroid hormone, result in words: had no effect on GH4C1 growth
T47D cells; 50% (v/v) CDE horse serum, 14 days
  growth effect of steroid hormone, result in words: completely ineffective
[4]
  CA-PS-Pool I Ka: 1.41e+09 M⁻¹
  Kd: 0.71 nM
[4]; listed as Cortisol
  CA-PS-Pool I Ka: 1.41e+09 M⁻¹
MTW9/PL2 cells
  concentration causing significant (p<0.05) growth: > 10 µM
CA-PS-Pool II
  CA-PS-Pool II Ka: 530000 M⁻¹
  Kd: 1890 nM
H301 cells; 50% (v/v) CDE-horse serum
  growth effect of steroid hormone, result in words: inactive

## C[C@]12CC[C@@H]3c4ccc(O)cc4CC[C@H]3[C@@H]1CC[C@@H]2O [E2, 17β-estradiol]
[5]
  growth responses to the natural hormone: 2 to 5 CPD
[6]; 1.0×10^−8 M
  increase in progesterone receptors: four
[6]; 1.0×10^−12 M
  increase in progesterone receptor content: two
Human SHBG
  Ka of purified human SHBG: 2.2e+08 M⁻¹
MCF-7K cells
  effect of E2 in serum-free defined medium without inhibitor: had no effect on growth rate or saturation density
LNCaP cells
  reversal of the inhibition caused by CDE-horse serum: reversed the CDE-serum caused inhibition completely
[7]; read-out: Kd for E2, CELL EXTRACTS
  Kd: 0.87 nM
[7]; read-out: Kd for E2, Table 5: lowest Kd
  Kd: 0.87 nM
[7]; read-out: Kd for E2, WHOLE CELLS
  Kd: 1 nM
[2]
  CA-PS-Pool II Ka: 2.4e+07 M⁻¹
  Kd: 41 nM
GH4C1 cells; serum-free PCM-9
  effect of E2 in serum-free defined medium without inhibitor: had no effect on growth rate or saturation density
T47D cells
  effect of estrogen in serum-free defined medium without inhibitor: 0.5 to 1.0 CPD
T47D cells; listed as estrogen
  effect of estrogen in serum-free defined medium without inhibitor: 1.0 CPD
[8]
  Kd: 20 to 50 nM
[4]
  Kd: 10500 nM
ZR-75-1 cells
  effect of E2 in serum-free defined medium without inhibitor: no effect
CA-PS-Pool II
  CA-PS-Pool II Ka: 3.55e+07 M⁻¹
H301 cells; serum-free defined CAPM
  effect of estrogen in serum-free defined medium without inhibitor: had no effect on H301 cell growth
[9]
  increase in number of progesterone receptors per cell: 1.8 fold and 2.0 fold
ERβ
  Kd for E2, CELL EXTRACTS: 0.05 to 0.1 × 10^−9 M
[10]
  Kd: 20 to 50 nM

## O=S1(=O)OC(c2ccc(O)cc2)(c2ccc(O)cc2)c2ccccc21 [Phenol Red]
[11]
  Percent of Control: 102% and 111% and 94% and 99% and 110%
